Experimental data published in patent publication US7034020B2, “Derivatives of butyric acid and uses thereof” (The University of Arkansas for Medical Science, priority 1999, dated 2006).

How the values were obtained:
[1] = system: total anti-ovalbumin antibody in the serum; experiment: Primary anti-ovalbumin antibody production in vivo (ELISA), derivatives on Days 1–3; set-up: species or system C57BL/10 mice; conditions: 0.091 mmol ip Days 1–3; serum day 10
Description: C57BL/10 mice are injected ip on Day 0 with ovalbumin followed by ip injections of saline, or one of three different butyrate derivatives on Days 1–3.
The butyrate derivatives are tested for their ability to suppress lymphocyte activity in vivo. C57BL/10 mice (5 mice/group) are injected ip with 100 μg of ovalbumin in conjunction with complete Freund's adjuvant on Day 0. In one experiment, the mice also receive one ip injection per day of the butyrate derivatives (0.091 mmol) on Days 1–3. Serum samples are obtained 10 days after the initial injection with ovalbumin, and tested for the presence of anti-ovalbumin antibodies using an ELISA. To perform the ELISA 96 well plates (Costar 3595) are first incubated with ovalbumin (100 μl/well of 100 μg/ml in PBS) overnight at 4° C. The plates are then washed 4 times with PBS and 0.5% Tween 20, blocked with 1% fetal calf serum for 30 minutes at 37° C., and washed again. Individual serum samples are added (diluted 1/100 or 1/1000 in PBS), and the plates are incubated for 2 hours at 20° C. The plates were next washed 7 times with PBS/Tween, and alkaline phosphate (AP)-labeled goat anti-mouse IgG, IgA, IgM (H+L) (Zymed) is added ( 1/1000) for 1 hour at 20° C. The plates are again washed 7 times with PBS/Tween, alkaline phosphate substrate (1 mg/ml) is added. After 10 minutes, Ig levels are quantified by an ELISA reader (absorbance 405 nm). The concentration of anti-ovalbumin is determined by comparison with a standard curve obtained using mouse anti-ovalbumin antibody (Sigma; St. Louis, Mo.). To measure isotype-specific anti-ovalbumin antibodies, serum samples (diluted at 1/300 or 1/1000) are incubated on the ovalbumin-coated plates as described above. […] Ig levels are presented as OD measurements.

lymph node CD4+ T cells = experiment: Ovalbumin-stimulated proliferation of lymph node CD4+ T cells from treated mice; type: in vivo, C57BL/10 mice; conditions: MEB 0.15 mmol ip on day 2 or day 3; cells restimulated with ovalbumin in vitro
Description: C57BL/10 mice are injected ip with ovalbumin/CFA on day 0, followed by a single ip injection of saline or MEB (0.15 mmol) on Days 2 or 3. The mice are reimmunized with ovalbumin sc on Day 10. Isotype-specific anti-ovalbumin antibody generated during the primary immune response (FIG. 4A), and the secondary immune response (FIG. 4B) are measured in the serum at day 10 and day 16, respectively. (FIG. 4C). […] This experiment was repeated, and the proliferation data represents the means of the two experiments.
If the butyrate derivatives suppressed antibody production to a thymus-dependent antigen by inactivating the antigen-specific CD4^+ T cells required for B cell help, then the butyrate derivatives need only be present during an early stage during which the CD4^+ T cells would otherwise be activated by antigen. […] On day 10 the mice receive 100 μg ovalbumin in conjunction with incomplete Freund's adjuvant sc at the base of the tail. After an additional 7 days, cells from the periaortic and mesenteric lymph nodes were enriched for CD4^+ T cells by negative selection (Griffin et al., 1998). […] Proliferation is measured on day 4 by assessing incorporation of [^3H]-TdR after a 12 hour pulse.

[2] = system: KLH-specific Th1 cells (clone D3); experiment: Th1 cell anergy induction in vitro (primary culture with MEB, secondary culture restimulation); type: cell-based, C57BL/10 mice; conditions: for Proliferation in antigen-stimulated secondary cultures: secondary: KLH
Description: KLH-specific Th1 cells (clone D3) are incubated in primary cultures with (FIG. 5A) MEB (1 mM) and/or IL-2 (10% Con A CM), or (FIG. 5B) MEB (1 mM) and/or KLH (50 μg/ml). After 2 days, the Th1 cells are isolated from the primary cultures, rested, and then re-incubated in secondary cultures stimulated with antigen (KLH, 50 μg/ml) or IL-2 (10% Con A CM).
Th1 cells are treated with MEB in the presence or absence of antigen or exogenous IL-2.
The ability of the butyrate derivative to induce Th1 cell anergy is examined using a protocol previously developed for n-butyrate-induced T cell tolerance (Gilbert and Weigle, 1993). Briefly, Th1 cells are incubated in primary cultures at 2.5×10^5 cells/ml, along with MEB (1 mM), KLH (50 μg/ml), and 5×10^6/ml irradiated syngeneic spleen cells as APC. Alternatively, the Th1 cells are incubated in primary cultures containing MEB and IL-2 (10% Con A CM). Control primary cultures receive MEB and APC, but no antigen or IL-2. After incubation for 24 h at 37° C., the cells in the primary cultures are harvested, washed free of MEB, and reincubated at 2.5×10^5 ml in secondary cultures without MEB. The Th1 cells in the secondary cultures are stimulated with 10% IL-2-cQntaining Con A CM, or with 5×10^6/ml irradiated syngeneic spleen cells as APC, and KLH. After 2 days in the secondary cultures, the Th1 cells are assessed for proliferation (pulsed with [^3H]-TdR for 12 h).

**Q.** Which “Decrease of primary anti-ovalbumin antibody response versus saline” value [1] does the source give for CCCC(=O)OCCN1CCOCC1.Cl [MEB, 2-(4-Morpholinyl)ethyl butyrate hydrochloride] here?
**A.** 65%

**Q.** What about the “Antigen-specific proliferation of CD4+ T cells from antigen-primed mice” value (lymph node CD4+ T cells) of the same compound?
**A.** significant loss of antigen-specific proliferation

**Q.** What about the “Proliferation in antigen-stimulated secondary cultures” value ([2]; primary culture: IL-2 and MEB (1 mM)) of the same compound?
**A.** retain their ability to proliferate to antigen

**Q.** And the “Proliferation in antigen-stimulated secondary cultures” value ([2]; primary culture: MEB alone (1 mM))?
**A.** retain their ability to proliferate in response to antigen stimulation

**Q.** What about the “Proliferation in secondary cultures stimulated with exogenous IL-2” value ([2]; primary culture: antigen (KLH) and MEB (1 mM), secondary: IL-2) of the same compound?
**A.** can still proliferate

**Q.** And the “Proliferation in antigen-stimulated secondary cultures” value ([2]; primary culture: antigen (KLH) and MEB (1 mM))?
**A.** lose their ability to proliferate
